Laboratory results as given in US10683278B2 (JINAN UNIVERSITY, priority 2015, dated 2020).
Like-named read-outs stand apart in the source and are kept apart here.

Tests used:
[1] = test system: AXL phosphorylation in MDA-MB-231 cells; assay: Western Blot, AXL kinase phosphorylation of MDA-MB-231 cells; type: cell-based; settings: FIG. 1
Protocol: Effect of quinolone derivatives on AXL kinase phosphorylation of MDA-MB-231 and 4T1 cells A conventional Western Blot was used, which includes four steps: sample preparation; electrophoretic separation; membrane transfer of proteins; and immunological hybridization and developing (protein detection).
1. MDA-MB-231 cells were seeded into a 6-well plate at an appropriate density, cultured for 24 hours until the cell confluency reached about 80%, drug-containing medium at corresponding concentration was added respectively, and co-cultured for 2-24 hours.
2. The medium was discarded at a predetermined time point, the well plate was washed twice with precooled PBS at 4° C. and the residual liquid was washed away.
3. 1×SDS sample buffer (CST recommended, 6-well plate, 300 μL) was added, scraping all the cells in the dish with a cell scraper, and transferring same to a 1.5 mL of EP tube (operated on ice).
4. The cell lysate was sonicated for 10-15 seconds to cut off DNA, so as to reduce sample viscosity.
5. Boil the sample for 5 min.
6. 12000 g of samples were centrifuged at 4° C. for 5 min, and the supernatant was taken and stored at −20° C. or −80° C. for western blot analysis.
1. Electrophoretic separation: 15-20 μL of 8%-12% SDS-PAGE polyacrylamide gel was loaded, with 90 v electrophoresis for the upper gel, and 120 v electrophoresis for the lower gel.
2. Assembly and transferring of the sandwich: submerging the polyacrylamide gel in transfer buffer and equilibrated for 10 min. According to the size of polyacrylamide gel, PVDF membrane (Mili pore) and 6 pieces of filter paper were cut out and placed in transfer buffer and equilibrated for 10 min. The PVDF membrane needs to be immersed in methanol for 3-5 seconds. Placed in such sequence as sponge→3 layers of filter paper→gel→membrane→3 layers of filter paper→sponge. Ensure there are no bubbles.
3. Membrane transferring: the transfer tank was placed in an ice bath, and the sandwich was added. Ensure the gel facing the negative electrode, and the PVDF facing the positive electrode. 1× membrane transferring buffer was added and placed under the constant pressure, subjecting same to membrane transferring at 110 V for 0.5 to 2 h depending on the molecular weight of the protein to be tested.
4. Blocking: the PVDF membrane was removed after the membrane transferring, blocked with blocking solution (1×TBS, containing 0.5% Tween-20 and 5% skim milk powder), and shaked slowly for 2 h on a horizontal shaker.
5. Incubation of the primary antibody: after blocking, diluting the primary antibody (antibody AXL, phosphor-AXL, AKT, phosphor-AKT, GAPDH, etc.) at 1: 200-1:1000. The PVDF membrane and the antibody were incubated overnight in a wet box at 4° C. to allow sufficient binding of the antibody to the protein of interest.
6. […]

[2] = In vivo pharmacokinetic and bioavailability experiments of rats; design: species or system SD rats; settings: for bioavailability: po, 25 mg/kg, read-out: F (oral bioavailability); for pharmacokinetic parameter, overall judgement: hydrochlorides, in words
Protocol: Pharmacokinetic and bioavailability experiments of rats. SD rats were administered orally (25 mg/kg) and intravenously (2.5 to 5 mg/kg) at a single dose. Animal blood samples were taken at appropriate time points after administration, heparin was added as anticoagulant, and same were centrifuged at 8000 rpm/min for 6 minutes, the supernatant was then taken and stored at −20° C. for HPLC-MS analysis. The proteins in blood samples were precipitated with acetonitrile at 12000 rpm for 10 min, and the supernatant was used for HPCL-MS analysis. Data were fit using DAS2.0 to obtain compartmental model and non-compartmental model parameters, respectively. The oral bioavailability of each compound was calculated according to AUC data.

[3] = test system: MV4-11 cells; assay: Inhibition of proliferation of MV4-11 cells (CCK-8); type: cell-based; settings: Homo sapiens, 72 h, mean±standard deviation of two independent tests
Protocol: (§1) 12000 g of compounds were centrifuged for 5 min, DMSO was added to make a 10^−2M stock solution, vortexed uniformly and sonicated for 10 min for standby application, and stored at −40° C. The compounds were diluted from the stock solution with saline to 10 times the concentration to be tested (concentration of DMSO in the system being no more than 0.5%) during the test.
(§2) The inhibitory effect of the compounds on the proliferation of MV4-11 cells was detected using a CCK-8 cell counting kit (Dojindo). The specific steps are as follows: the MV4-11 cells in logarithmic growth phase were seeded into a 96-well culture plate at a suitable density in 90 μL/well, cultured overnight, compounds at different concentrations were then added and acted on cells for 72 hr, and the solvent control group (negative control) was set up. The effect of the compounds on cell proliferation was detected using a CCK-8 cell counting kit (Dojindo) after the compounds had acted on the cells for 72 h. 10 μL of CCK-8 reagent was added to each well, same was placed in an incubator at 37° C. for 2-4 hours, and the reading from the full-wavelength microwell plate ELIASA SpectraMax 190 was performed with a wavelength of 450 nm.
(§3) IC50 value was calculated using a software included with ELIASA by the four-parameter regression.
(§4) IC50 for the inhibition of the compounds on each stain of cells was derived from two independent repeated tests, and the results are shown as the mean±standard deviation.

[4] = test system: Molm-13 cells; assay: Inhibition of proliferation of Molm-13 cells (CCK-8); type: cell-based; settings: Homo sapiens, 72 h, mean±standard deviation of two independent tests
Protocol: [Worded in the source for another cell line; this cell line is reported under the same test.] as §1, §2, §3, §4

[5] = SD rats, Po, 25 mg/kg single dose
[6] = SD rats, iv, 2.5 mg/kg single dose
[7] = Sprague-Dawley, rat, plasma, SD rats, Po, 25 mg/kg single dose
[8] = Sprague-Dawley, rat, plasma, SD rats, Po, 25 mg/kg single dose, read-out: Cmax
[9] = Sprague-Dawley, rat, plasma, SD rats, iv, 5 mg/kg single dose
[10] = Sprague-Dawley, rat, plasma, SD rats, iv, 5 mg/kg single dose, read-out: Cmax

AUC(0-∞) [2, 5] [ng·h/mL]	Cmax [2, 5] [ng/mL]	T1/2 [2, 5] [h]	bioavailability ([2]; Sprague-Dawley, rat, plasma) [%]	AUC(0-t) [2, 7] [ng·h/mL]	IC50 [3] [nM]	pharmacokinetic parameter, overall judgement ([2]; SD rats)	AUC(0-inf) [2, 7] [ng·h/mL]	half-life [2, 7] [h]	Cmax [2, 8] [ng/mL]	AUC(0-inf) [2, 9] [ng·h/mL]	AUC(0-t) [2, 9] [ng·h/mL]	clearance [2, 9] [mL/min/kg]	half-life [2, 9] [h]	Cmax [2, 10] [ng/mL]	IC50 [4] [nM]	Compound	phosphorylation of AXL [1]	phosphorylation of downstream signaling protein AKT [1]	other results
			23.5	51500	51.7 ± 17.6	appropriate pharmacokinetic parameter	118000	26.7	3080	47700	43800	1.83	6.7	6480	3.5 ± 3.2	CCc1ccc2c(c1)c(=O)c(C(=O)Nc1ccc(Oc3ncnc4cc(OCCCN5CCOCC5)c(OC)cc34)c(F)c1)c(C)n2C [GDL5000123, 6-ethyl-N-(3-fluoro-4-((6-methoxy-7-(3-morpholinopropoxy)quinazolin-4-yl)oxy)phenyl)-1,2-dimethyl-4-oxo-1,4-dihydroquinoline-3-carboxamide]			
			44.3	25100	57.3 ± 10.4	appropriate pharmacokinetic parameter	25600	4.59	4630	11600	11300	7.5	5.82	16800	50.2 ± 9.9	CCc1ccc2c(c1)c(=O)c(C(=O)Nc1ccc(Oc3ncnc4cc(OCCN(C)C)c(OC)cc34)c(F)c1)c(C)n2C [GDL5000128, N-(4-(7-(2-(dimethylamino)ethoxy)-6-methoxyquinazolin-4-yloxy)-3-fluorophenyl)-6-ethyl-1,2-dimethyl-4-oxo-1,4-dihydroquinoline-3-carboxamide]			
			27.5	11300	< 2	appropriate pharmacokinetic parameter	31300	34.8	656	8530	8220	9.83	5.72	3560	3.9 ± 2.9	CCc1ccc2c(c1)c(=O)c(C(=O)Nc1ccc(Oc3ncnc4cc(OCCCN5CCN(C)CC5)c(OC)cc34)c(F)c1)c(C)n2C [GDL5000138, 6-ethyl-N-(3-fluoro-4-(6-methoxy-7-(3-(4-methylpiperazin-1-yl)propoxy)quinazolin-4-yloxy)phenyl)-1,2-dimethyl-4-oxo-1,4-dihydroquinoline-3-carboxamide]			

The next lines start with the molecule.

Compound	AUC(0-∞) [2, 5] [ng·h/mL]	Cmax [2, 5] [ng/mL]	T1/2 [2, 5] [h]	bioavailability ([2]; Sprague-Dawley, rat, plasma) [%]	AUC(0-t) [2, 7] [ng·h/mL]	IC50 [3] [nM]	pharmacokinetic parameter, overall judgement ([2]; SD rats)	AUC(0-inf) [2, 7] [ng·h/mL]	half-life [2, 7] [h]	Cmax [2, 8] [ng/mL]	AUC(0-inf) [2, 9] [ng·h/mL]	AUC(0-t) [2, 9] [ng·h/mL]	clearance [2, 9] [mL/min/kg]	half-life [2, 9] [h]	Cmax [2, 10] [ng/mL]	IC50 [4] [nM]	phosphorylation of AXL [1]	phosphorylation of downstream signaling protein AKT [1]	other results
CCc1ccc2c(c1)c(=O)c(C(=O)Nc1ccc(Oc3ncnc4[nH]cc(-c5ccccc5)c34)c(F)c1)c(C)n2C [TL4800075, 6-ethyl-N-(3-fluoro-4-((5-phenyl-7H-pyrrolo[2,3-d]pyrimidin-4-yl)oxy)phenyl)-1,2-dimethyl-4-oxo-1,4-dihydroquinoline-3-carboxamide]	505.71	121.74	3.72	1.23	371												significantly inhibit	significantly inhibit	AUC(0-∞) [2, 6]: 3029.64 ng·h/mL; CL [2, 6]: 13.8 mL/min/kg; Cmax [2, 6]: 2910.13 ng/mL; T1/2 [2, 6]: 0.87 h; AUC(0-t) ([2]; Sprague-Dawley, rat, plasma, SD rats, iv, 2.5 mg/kg single dose): 3020 ng·h/mL
COc1cc2ncnc(Oc3ccc(NC(=O)c4cn5c6c(c(N7CCC(O)CC7)c(F)cc6c4=O)CCC5C)cc3F)c2cc1OC (stereo not drawn) [TL4830031, N-(4-((6,7-dimethoxyquinazolin-4-yl)oxy)-3-fluorophenyl)-9-fluoro-8-(4-hydroxypiperidin-1-yl)-5-methyl-1-oxo-1,5,6,7-tetrahydropyrido[3,2,1-ij]quinoline-2-carboxamide]				12.1	24400	> 500		25900	5.68	2390	20700	20300	2	4.26	4360	239 ± 21.9			
CCc1ccc2c(c1)c(=O)c(C(=O)Nc1ccc(Oc3ncnc4cc(OC)c(OC)cc34)c(F)c1)c(C)n2C [TL4800191, N-(4-(6,7-dimethoxyquinazolin-4-yloxy)-3-fluorophenyl)-6-ethyl-1,2-dimethyl-4-oxo-1,4-dihydroquinoline-3-carboxamide]	31505	1967	10.2		31300	194 ± 104					42300	30500	1.67	25.2	1170	102 ± 10.9	significantly inhibit	significantly inhibit	F (oral bioavailability) ([2]; SD rats, Po 25 mg/kg vs iv 2.5 to 5 mg/kg, calculated according to AUC data): 14.9%; CL [2, 5]: 15 mL/min/kg
